Series [1] addresses T1, CDK12 (Homo sapiens, UniProt Q9NYV4). Put plainly: Western blot degradation of CDK12 (Example 2). The series is classed as cell-based. The arrangement: degradation of CDK12/13 protein in leukemia cells KASUMI-1, MV4-11, and Jurkat; endogenous in cells. The note with it: DC50 classes; cell line not given; read-out: CDK12 degradation Activity. A digest of the protocol:
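Leukemia lines KASUMI-1, MV4-11, Jurkat, plus MDA-MB-231 for a concentration series, treated at 0.01–3 μM for 3–48 h at 37 °C against DMSO control. Lysates in 4% SDS; CDK12/13 band intensity normalized to β-Actin or GAPDH to give degradation rate.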
Background: In western blotting, separated proteins are transferred to a membrane and probed.

A short description of series [2]: Liver microsome stability, human. The series is classed as in vitro ADME. As to conditions: liver microsomes. Here is the method:
(§1) • Compounds: Ketanserin, Formula 18, Formula 45 • Liver microsomes: Human liver microsomes (purchased from BioreclamationIVT); Dog, mouse, rat, and monkey liver microsomes (purchased from Xenotech)
(§2) Preparation of 500 μM compound solution: Add 5 μL of 10 mM compound solution and 95 μL of DMSO to an EP tube.
(§3) Preparation of solution containing 0.75 mg/mL liver microsomes and 1.5 μM compound: Add 1.5 μL of the 500 μM compound solution, 18.75 μL of the 20 mg/mL liver microsome solution, and 479.75 μL of PBS to an EP tube.
(§4) Preparation of 6 mM NADPH solution: Dissolve 5 mg of NADPH in 1 mL of PBS solution.
(§5) Add 30 μL of the solution containing 0.75 mg/mL liver microsomes and a concentration gradient of the compound to a 96-well plate. Add 15 μL of the 6 mM NADPH solution and 150 μL of a 1:1 acetonitrile:methanol solution containing an internal standard (IS). Vortex and centrifuge at 6,000 rpm for 10 min. 80 μL of the supernatant from each concentration sample is transferred to a 96-well plate containing 140 μL of pure water for LC/MS detection (injection volume of […]). […]
(§6) 80 μL of the supernatant from each well is transferred to a 96-well plate containing 140 μL of pure water for LC/MS detection (injection volume of […]). The compound concentration value is determined by comparing the corresponding mass spectrometry peak area with the standard curve. […]
(Liver microsomes are a subcellular fraction often used to study metabolism.)

Series [3] is described as follows: Liver microsome stability, dog. The format is in vitro ADME. As to conditions: liver microsomes. The method, then: as §1, §2, §3, §4, §5, §6
The nature of series [4]: Liver microsome stability, monkey. The series is classed as in vitro ADME. The note with it: liver microsomes. The method, then:
as §1, §2, §3, §4, §5, §6

Series [5] is described as follows: Liver microsome stability, rat. The series is classed as in vitro ADME. The note with it: liver microsomes. The method, then: as §1, §2, §3, §4, §5, §6
Series [6] concerns the target T2, CDK13 (Homo sapiens, UniProt Q14004). Description: Western blot degradation of CDK13 (Example 2). The arrangement: degradation of CDK12/13 protein in leukemia cells KASUMI-1, MV4-11, and Jurkat; endogenous in cells. As to conditions: DC50 classes; cell line not given; read-out: CDK13 degradation Activity. The format is cell-based.
Series [7] relates to serine 2 in the C-terminal domain of RNA polymerase II (CTD-pSer2). Description: Phosphorylation of serine 2 in the C-terminal domain of RNA polymerase II, Western blot. The note with it: MDA-MB-231, 24 h, concentration gradient. The series is classed as cell-based. The method, then:
Protein Western blot was used to determine the degradation of CDK12/13 protein in colorectal cancer cells HCT-116, breast cancer cells MDA-MB-231, and leukemia cells Jurkat. The two compounds with the best degradation effects were further validated for their ability to degrade CDK12/13 protein in MDA-MB-231 cells using a concentration gradient. The effect of the compounds on the phosphorylation of serine 2 in the C-terminal domain of RNA polymerase II (CTD-pSer2) was also measured.
(§7) (3) Compound treatment: The 50 mM compound stock solution was diluted with cell culture medium to a final concentration of 0.01 μM-3 μM. Cells were incubated in a 37 °C incubator with 5% CO2 for 3 h-48 h. The DMSO group served as the negative control.

Series [8] deals with T1, CDK12. Description: Western blot degradation of CDK12 (Example 3). Also on record: degradation of CDK12/13 protein in leukemia cells KASUMI-1, MV4-11, and Jurkat; endogenous in cells. The format is cell-based.
Series [9] relates to CCNK. Description: Reversal of CCNK degradation by proteasome inhibitor MG132, Western blot. The format is cell-based. As to conditions: MDA-MB-231, 24 h treatment, MG132 added 12 h before sample collection. The method, then: (§8) • Cell lines: HCT-116, Jurkat, or MDA-MB-231 • Culture medium: DMEM/RIPM-1640+10% Hyclone serum • Compound dissolution method: The compounds (small molecule conjugates as shown in Formulae 101-147, MG132) were dissolved in DMSO to prepare a 50 mM stock solution and then diluted to the corresponding concentrations.
as §7
In the figures, CDK12, CDK13, and CCNK are the target proteins under study, and β-Actin and GAPDH are the internal reference proteins. Internal reference proteins are used to indicate the total protein amount in each experimental group for quantitative analysis.

Series [10] concerns the target T2, CDK13. Description: Reversal of CDK13 degradation by proteasome inhibitor MG132, Western blot. Also on record: endogenous in cells. The note with it: MDA-MB-231, 24 h treatment, MG132 added 12 h before sample collection. The series is classed as cell-based. Here is the method:
as §8, §7

The target in series [11] is T1, CDK12. Put plainly: Reversal of CDK12 degradation by proteasome inhibitor MG132, Western blot. The series is classed as cell-based. The arrangement: endogenous in cells. As to conditions: MDA-MB-231, 24 h treatment, MG132 added 12 h before sample collection. The method, then:
as §8, §7

In series [12] the target is T2, CDK13. Put plainly: Western blot degradation of CDK13 (Example 3). The format is cell-based. The arrangement: degradation of CDK12/13 protein in leukemia cells KASUMI-1, MV4-11, and Jurkat; endogenous in cells.

Bounds are passed on as bounds.

We go through 3 compounds from US20260327204A1, “DEGRADERS OF CYCLIN-DEPENDENT KINASE 12/13, COMPOSITIONS, AND USES THEREOF” (ZHEJIANG UNIVERSITY, priority 2023, published 2026).

By half-life is commonly meant the time in which the quantity being followed falls by half.

T1 sequence (Q9NYV4 whole entry): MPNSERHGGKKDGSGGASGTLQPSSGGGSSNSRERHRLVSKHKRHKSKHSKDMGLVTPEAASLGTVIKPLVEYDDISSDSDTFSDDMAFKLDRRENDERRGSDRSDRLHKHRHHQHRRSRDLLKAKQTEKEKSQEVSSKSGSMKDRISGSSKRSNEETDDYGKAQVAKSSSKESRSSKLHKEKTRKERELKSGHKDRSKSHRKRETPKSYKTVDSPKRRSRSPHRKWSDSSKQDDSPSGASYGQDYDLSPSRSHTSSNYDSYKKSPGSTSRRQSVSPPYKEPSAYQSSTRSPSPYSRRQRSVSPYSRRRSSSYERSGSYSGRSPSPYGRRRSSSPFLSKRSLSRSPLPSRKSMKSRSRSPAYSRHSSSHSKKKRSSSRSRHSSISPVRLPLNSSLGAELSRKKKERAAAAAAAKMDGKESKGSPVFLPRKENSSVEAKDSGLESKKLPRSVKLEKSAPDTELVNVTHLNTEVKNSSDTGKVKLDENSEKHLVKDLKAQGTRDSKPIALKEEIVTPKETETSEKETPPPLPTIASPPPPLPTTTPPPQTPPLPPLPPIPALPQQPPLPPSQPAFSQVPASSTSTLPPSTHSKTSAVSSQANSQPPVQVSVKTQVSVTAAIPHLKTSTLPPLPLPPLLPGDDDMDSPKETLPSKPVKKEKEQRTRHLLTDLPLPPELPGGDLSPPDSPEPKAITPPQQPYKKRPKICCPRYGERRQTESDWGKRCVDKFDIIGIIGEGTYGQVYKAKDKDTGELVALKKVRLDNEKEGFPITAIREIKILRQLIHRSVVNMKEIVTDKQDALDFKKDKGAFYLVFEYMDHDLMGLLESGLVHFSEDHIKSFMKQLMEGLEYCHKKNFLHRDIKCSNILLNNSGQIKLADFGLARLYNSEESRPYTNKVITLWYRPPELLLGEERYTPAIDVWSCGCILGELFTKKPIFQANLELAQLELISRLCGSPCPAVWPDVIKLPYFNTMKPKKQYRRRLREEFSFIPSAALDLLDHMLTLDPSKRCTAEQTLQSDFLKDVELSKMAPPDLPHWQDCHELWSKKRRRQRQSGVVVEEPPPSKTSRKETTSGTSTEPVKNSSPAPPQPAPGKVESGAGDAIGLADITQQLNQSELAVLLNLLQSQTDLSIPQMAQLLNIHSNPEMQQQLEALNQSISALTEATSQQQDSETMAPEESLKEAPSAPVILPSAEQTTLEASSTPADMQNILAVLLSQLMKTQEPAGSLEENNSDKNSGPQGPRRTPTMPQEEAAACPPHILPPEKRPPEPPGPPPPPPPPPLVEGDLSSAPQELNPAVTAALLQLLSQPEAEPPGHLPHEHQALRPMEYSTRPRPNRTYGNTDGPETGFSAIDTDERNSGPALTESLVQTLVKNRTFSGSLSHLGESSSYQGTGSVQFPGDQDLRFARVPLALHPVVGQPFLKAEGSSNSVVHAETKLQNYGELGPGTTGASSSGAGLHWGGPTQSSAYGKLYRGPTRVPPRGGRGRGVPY
T1 sequence (O75909 whole entry partner): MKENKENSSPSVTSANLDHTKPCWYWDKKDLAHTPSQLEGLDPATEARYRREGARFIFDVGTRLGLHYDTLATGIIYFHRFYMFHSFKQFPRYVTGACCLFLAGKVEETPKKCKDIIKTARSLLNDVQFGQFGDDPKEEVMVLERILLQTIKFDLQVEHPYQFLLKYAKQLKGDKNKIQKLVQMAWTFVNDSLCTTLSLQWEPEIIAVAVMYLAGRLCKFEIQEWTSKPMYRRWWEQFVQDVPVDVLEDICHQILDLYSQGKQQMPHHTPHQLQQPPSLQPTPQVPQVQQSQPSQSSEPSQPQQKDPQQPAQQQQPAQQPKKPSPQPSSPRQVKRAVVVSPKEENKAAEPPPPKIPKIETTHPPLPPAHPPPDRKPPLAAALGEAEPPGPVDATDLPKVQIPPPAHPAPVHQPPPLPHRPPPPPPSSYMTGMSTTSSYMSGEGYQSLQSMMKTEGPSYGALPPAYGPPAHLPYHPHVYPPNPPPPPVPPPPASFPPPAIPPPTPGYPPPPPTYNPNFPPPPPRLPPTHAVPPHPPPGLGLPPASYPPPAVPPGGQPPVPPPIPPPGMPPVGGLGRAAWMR
T2 sequence (Q14004 whole entry, the tested form may be a part): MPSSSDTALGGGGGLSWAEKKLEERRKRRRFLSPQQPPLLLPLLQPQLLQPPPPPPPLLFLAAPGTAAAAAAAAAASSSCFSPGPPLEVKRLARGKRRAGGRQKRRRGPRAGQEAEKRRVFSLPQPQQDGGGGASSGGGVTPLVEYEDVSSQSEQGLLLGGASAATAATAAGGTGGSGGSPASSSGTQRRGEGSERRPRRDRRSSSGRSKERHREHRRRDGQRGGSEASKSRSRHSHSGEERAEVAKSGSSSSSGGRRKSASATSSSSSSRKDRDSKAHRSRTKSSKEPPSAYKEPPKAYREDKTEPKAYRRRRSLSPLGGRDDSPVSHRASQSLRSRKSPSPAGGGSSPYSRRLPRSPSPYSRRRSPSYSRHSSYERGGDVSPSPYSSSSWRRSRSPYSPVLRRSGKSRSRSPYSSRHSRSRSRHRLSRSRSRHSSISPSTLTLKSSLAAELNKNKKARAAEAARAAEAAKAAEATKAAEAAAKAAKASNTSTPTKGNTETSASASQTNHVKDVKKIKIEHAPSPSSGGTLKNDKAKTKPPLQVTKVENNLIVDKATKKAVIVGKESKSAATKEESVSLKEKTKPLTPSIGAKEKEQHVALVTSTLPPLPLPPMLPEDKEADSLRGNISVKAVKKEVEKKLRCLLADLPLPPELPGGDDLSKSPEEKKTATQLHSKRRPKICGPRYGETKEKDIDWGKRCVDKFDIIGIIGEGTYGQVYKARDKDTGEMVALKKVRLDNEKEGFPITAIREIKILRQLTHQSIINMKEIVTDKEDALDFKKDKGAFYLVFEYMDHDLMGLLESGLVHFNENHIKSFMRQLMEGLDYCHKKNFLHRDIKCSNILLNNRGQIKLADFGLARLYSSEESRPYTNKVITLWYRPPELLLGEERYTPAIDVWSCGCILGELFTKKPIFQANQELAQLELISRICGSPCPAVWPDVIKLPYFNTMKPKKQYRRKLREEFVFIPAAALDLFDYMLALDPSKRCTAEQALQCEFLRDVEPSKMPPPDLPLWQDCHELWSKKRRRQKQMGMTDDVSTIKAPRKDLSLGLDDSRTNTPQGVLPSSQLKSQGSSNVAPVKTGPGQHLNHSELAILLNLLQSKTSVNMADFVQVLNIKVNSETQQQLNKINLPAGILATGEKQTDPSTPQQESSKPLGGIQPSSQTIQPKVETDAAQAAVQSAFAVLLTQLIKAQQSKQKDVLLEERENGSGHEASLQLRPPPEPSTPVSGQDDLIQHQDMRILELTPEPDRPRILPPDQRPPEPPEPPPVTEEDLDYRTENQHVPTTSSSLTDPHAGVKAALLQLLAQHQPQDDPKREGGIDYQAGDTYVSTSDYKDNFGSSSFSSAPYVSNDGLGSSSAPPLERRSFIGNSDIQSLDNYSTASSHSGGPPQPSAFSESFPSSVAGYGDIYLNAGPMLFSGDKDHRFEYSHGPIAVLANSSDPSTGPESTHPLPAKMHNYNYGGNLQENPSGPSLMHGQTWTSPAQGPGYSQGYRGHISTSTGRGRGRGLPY
T2 sequence (O75909 whole entry partner, the tested form may be a part): as the sequence (O75909 whole entry partner) above

Take `Cc1ncsc1-c1ccc([C@H](C)NC(=O)[C@@H]2C[C@@H](O)CN2C(=O)[C@@H](NC(=O)CN2CCN(c3ccc(-c4ccc(N(C(=O)NCc5ccccc5)[C@H]5CC[C@H](Nc6ccc(C#N)cn6)CC5)cc4)cn3)CC2)C(C)(C)C)cc1` [Formula 18]: the DC50 in series [1] and in [6] was less than 0.1 µM each time. The half-life in series [2], in [3], in [4] and in [5] was greater than 45 min in each case.

With `N#Cc1ccc(NC2CCC(N(C(=O)NCc3ccccc3)c3ccc(-c4ccc(=O)n(CCOCCOCCNc5cccc6c5C(=O)N(C5CCC(=O)NC5=O)C6=O)c4)cc3)CC2)nc1` (centres unmarked) [Formula 47], the DC50 in series [1] lay within 0.5 to 1 µM; in [6], 1 to 3 µM. Further, the “phosphorylation of serine 2 in the C-terminal domain of RNA polymerase II (CTD-pSer2)” value in series [7] is given as “can dose-dependently downregulate the phosphorylation of serine 2”.

With `CC(=O)N(c1ccc(-c2ccc(N3CCN(c4ccc5c(c4)C(=O)N(C4CCC(=O)NC4=O)C5=O)CC3)nc2)cc1)[C@H]1CC[C@H](Nc2ncc3ccccc3n2)CC1` (stereo partly drawn) [Formula 103, N-(4-(6-(4-(2-(2,6-dioxopiperidin-3-yl)-1,3-dioxoisoindolin-5-yl)piperazin-1-yl)pyridin-3-yl)phenyl)-N-((1R,4R)-4-(quinazolin-2-ylamino)cyclohexyl)acetamide], the DC50 is less than 0.1 µM in series [8] (DC50 classes, cell line not given, read-out: CDK12 degradation Activity); 0.022 µM in [8] (HCT116, colorectal cancer cells, read-out: CDK12 DC50); 0.015 µM in series [8] (KASUMI-1, leukemia cells, read-out: CDK12 DC50); 0.016 µM in [8] (MDA-MB-231, breast cancer cells, read-out: CDK12 DC50); less than 0.1 µM in series [12] (DC50 classes, cell line not given, read-out: CDK13 degradation Activity); 0.019 µM in [12] (HCT116, colorectal cancer cells, read-out: CDK13 DC50). In addition, the DC50 in [12] (KASUMI-1, leukemia cells, read-out: CDK13 DC50) was determined as 0.018 µM; in series [12] (MDA-MB-231, breast cancer cells, read-out: CDK13 DC50), 0.03 µM. Further, in [9], the “reversal of CCNK degradation by MG132” value is “can reverse the degradation of CDK12/13 and CCNK”. The “reversal of CDK13 degradation by MG132” value in [10] was “can reverse the degradation of CDK12/13 and CCNK”. In addition, the “reversal of CDK12 degradation by MG132” value in series [11] was “can reverse the degradation of CDK12/13 and CCNK”.
